Measurements from patent US20220313662A1, “SUCCINATE DEHYDROGENASE INHIBITORS FOR BREAKING DORMANCY” (Valent BioSciences LLC, priority 2021, published 2022).

How the values were obtained:
Type in all cases: in vivo
[1] = tested on: Concord grape vines; assay: Example 1: bud break and shoot weight of potted Concord grape vines in a greenhouse; conditions: for Shoot Weight / shoot weight, more than control: 41 days after treatment; for time to 50% bud break, faster than control: rates of Table 1: malonate 3,000 and 10,000 ppm, penthiopyrad 1,428 ppm, inpyrfluxam 486 ppm, pydiflumetofen 968 ppm
Method: To assess the ability of SDHIs to promote and synchronize bud break and increase shoot weight, SDHIs were applied to shoots of potted 1 year old Concord grape vines grown in a greenhouse and examined for bud break (initiation of growth). Hydrogen cyanamide, malonate (malonic acid), inpyrfluxam, penthiopyrad and pydiflumetofen were each applied individually to the shoots of five potted concord grape rootstocks that were pruned to 5 nodes. Plants were evaluated for bud break periodically starting at 5 days after treatment. Plants were evaluated for shoot weight at 41 days after treatment.

[2] = tested on: Thompson seedless grapes; assay: Example 3: field trial, bud break and shoot growth of Thompson seedless grapes; parameters: Shoot Growth: unit not given beside the values; conditions: for Shoot Growth: equals sum of the three length classes
[3] = tested on: Concord grape vines; assay: Example 2: bud break and shoot weight of potted Concord grape vines, single SDHIs and mixtures (OCE/ECE, Abbott method); conditions: for Shoot Weight: 41 days after treatment
Method: To assess the ability of SDHIs to promote and synchronize bud break and increase shoot weight, SDHIs were applied to shoots of 1 year old potted Concord grape vines grown in a greenhouse and examined for bud break (initiation of growth). Hydrogen cyanamide, malonate (malonic acid), inpyrfluxam, and mixtures of malonate and inpyrfluxam were each applied to the shoots of five potted concord grape rootstocks that were pruned to 5 nodes. Plants were evaluated for bud break periodically starting at 5 days after treatment. Plants were evaluated for shoot weight at 41 days after treatment.
To determine if the mixtures provided unexpected results, the observed combined efficacy (“OCE”) was divided by the expected combined efficacy (“ECE”) to give an OCE/ECE ratio wherein the expected ECE is calculated by the Abbott method: […]
wherein ECE is the expected combined efficacy and in which A and B are the efficacy provided by the single active ingredients. If the ratio between the OCE of the mixture and the ECE of the mixture is greater than 1, then greater than expected interactions are present in the mixture. (Gisi, The American Phytopathological Society, 86:11, 1273-1279, 1996).

[4] = tested on: Thompson seedless grapes; assay: Example 3: field trial, bud break and shoot growth of Thompson seedless grapes
Method: Thompson seedless grapes were grown in the field in Kanoneiland, Northern Cape, South Africa during the 2021 growing season. Hydrogen cyanamide, malonate (malonic acid), and inpyrfluxam were each applied to the shoots of grape plants at 2 or 4 weeks before natural bud break. Plants were evaluated for bud break at 7 and 21 days after 1st bud break.

[5] = 10,000 ppm (Table 4), 2 weeks before natural bud break
[6] = 10,000 ppm, 2 weeks before natural bud break
[7] = 10,000 ppm, 4 weeks before natural bud break
[8] = 10,000 ppm, applied 2 weeks before natural bud break
[9] = 10,000 ppm, applied 4 weeks before natural bud break
[10] = applied at 10,000 ppm to shoots
[11] = 2% v/v, 4 weeks before natural bud break
[12] = 2% v/v, applied 4 weeks before natural bud break
[13] = 486 ppm (Table 4), 2 weeks before natural bud break
[14] = 486 ppm, 2 weeks before natural bud break
[15] = 486 ppm, 4 weeks before natural bud break
[16] = 486 ppm, applied 4 weeks before natural bud break
[17] = 486 ppm, applied 2 weeks before natural bud break

SMILES: CC(C)CC(C)c1sccc1NC(=O)c1cn(C)nc1C(F)(F)F (stereo not shown) [Penthiopyrad, penthiopyrad]
- days to 100% bud break, faster than control ([1]; 1,428 ppm (Table 1)): 38%
- Days to 50% BB ([1]; applied at 1,428 ppm to shoots): 7 days
- Days to 100% BB ([1]; applied at 1,428 ppm to shoots): 13 days
- Shoot Weight ([1]; applied at 1,428 ppm): 29.4 g
- time to 50% bud break, faster than control [1]: about 40%

SMILES: O=C(O)CC(=O)O [Malonate, malonic acid]
- increase in shoot growth over Dormex [2, 5]: 11%
- increase in shoot growth over control [2, 5]: 44%
- increase in shoot growth over control ([2]; 10,000 ppm (Table 4), 4 weeks before natural bud break): 20%
- Shoot Growth (%) 1-5 cm [2, 6]: 23.3%
- Shoot Growth (%) 5-10 cm [2, 6]: 19.1%
- Shoot Growth (%) >10 cm [2, 6]: 32 c %
- Shoot Growth [2, 6]: 74.5
- Shoot Growth (%) 1-5 cm [2, 7]: 27.7%
- Shoot Growth (%) 5-10 cm [2, 7]: 17.8%
- Shoot Growth (%) >10 cm [2, 7]: 16.6 b %
- Shoot Growth [2, 7]: 62
- Bud Break % at 21 days after 1st bud break [2, 8]: 98.2 ef %
- Bud Break % at 21 days after 1st bud break [2, 9]: 87.5 cde %
- time to 50% bud break, faster than control ([3]; 1,000 ppm, 3,000 ppm and 10,000 ppm): about 4%
- time to 100% bud break, faster than control ([3]; 10,000 ppm): 25%
- Days to 50% BB ([3]; applied at 300 ppm to shoots): 25 days
- Days to 100% BB ([3]; applied at 300 ppm to shoots): 20 days
- Shoot Weight ([3]; applied at 300 ppm): 8.0 g
- Days to 50% BB ([3]; applied at 1,000 ppm to shoots): 24 days
- Days to 100% BB ([3]; applied at 1,000 ppm to shoots): 26 days
- Shoot Weight ([3]; applied at 1,000 ppm): 8.8 g
- Days to 50% BB ([3]; applied at 3,000 ppm to shoots): 24 days
- Days to 100% BB ([3]; applied at 3,000 ppm to shoots): 17 days
- Shoot Weight ([3]; applied at 3,000 ppm): 8.5 g
- Days to 50% BB [3, 10]: 24 days
- Days to 100% BB [3, 10]: 12 days
- Shoot Weight ([3]; applied at 10,000 ppm): 7.9 g
- Bud Break % at 7 days after 1st bud break [4, 8]: 33.7 a %
- Bud Break % at 21 days after 1st bud break [4, 8]: statistically significant increase over control
- Bud Break % at 7 days after 1st bud break [4, 9]: 29 a %
- days to 100% bud break, faster than control ([1]; 3,000 ppm): 10%
- shoot weight, more than control ([1]; 3,000 ppm): 28%
- days to 100% bud break, faster than control ([1]; 10,000 ppm): 19%
- shoot weight, more than control ([1]; 10,000 ppm): 58%
- Days to 50% BB ([1]; applied at 3,000 ppm to shoots): 7 days
- Days to 100% BB ([1]; applied at 3,000 ppm to shoots): 19 days
- Shoot Weight ([1]; applied at 3,000 ppm): 41.75 g
- Days to 50% BB [1, 10]: 7 days
- Days to 100% BB [1, 10]: 17 days
- Shoot Weight ([1]; applied at 10,000 ppm): 51.4 g
- time to 50% bud break, faster than control [1]: about 40%

SMILES: N#CN [Hydrogen cyanamide, hydrogen cyanamide]
- Shoot Growth (%) 1-5 cm [2, 11]: 21.7%
- Shoot Growth (%) 5-10 cm [2, 11]: 16.1%
- Shoot Growth (%) >10 cm [2, 11]: 29.3 c %
- Shoot Growth [2, 11]: 67.2
- Bud Break % at 7 days after 1st bud break [2, 12]: 63.2 b %
- Bud Break % at 21 days after 1st bud break [2, 12]: 81.3 bcd %
- Days to 50% BB ([3]; applied at 2% v/v to shoots): 18 days
- Days to 100% BB ([3]; applied at 2% v/v to shoots): 16 days
- Shoot Weight ([3]; applied at 2% v/v): 8.9 g
- Days to 50% BB ([1]; applied at 2% v/v to shoots): 12 days
- Days to 100% BB ([1]; applied at 2% v/v to shoots): 17 days
- Shoot Weight ([1]; applied at 2% v/v): 27.4 g
- effect on the number of days to 50% bud break (in words) ([1]; rates of Table 1, hydrogen cyanamide 2% v/v): no effect

SMILES: CC1CC(C)(C)c2c(F)ccc(NC(=O)c3cn(C)nc3C(F)F)c21 (stereo not shown) [Inpyrfluxam, inpyrfluxam]
- increase in shoot growth over Dormex [2, 13]: 15%
- increase in shoot growth over control [2, 13]: 50%
- increase in shoot growth over control ([2]; 486 ppm (Table 4), 4 weeks before natural bud break): 27%
- Shoot Growth (%) 1-5 cm [2, 14]: 27.7%
- Shoot Growth (%) 5-10 cm [2, 14]: 21.1%
- Shoot Growth (%) >10 cm [2, 14]: 28.8 c %
- Shoot Growth [2, 14]: 77.6
- Shoot Growth (%) 1-5 cm [2, 15]: 25.9%
- Shoot Growth (%) 5-10 cm [2, 15]: 20.3%
- Shoot Growth (%) >10 cm [2, 15]: 19.7 b %
- Shoot Growth [2, 15]: 65.8
- Bud Break % at 21 days after 1st bud break [2, 16]: 90.3 def %
- Bud Break % at 21 days after 1st bud break ([2]; 486 ppm, applied 4 weeks before natural bud break, listed as inpyrfluxam): statistically significant increase over control
- time to 50% bud break, faster than control ([3]; 486 ppm): about 12%
- time to 100% bud break, faster than control ([3]; 486 ppm): 19%
- time to 100% bud break, faster than control ([3]; 972 ppm): 38%
- Days to 50% BB ([3]; applied at 97.2 ppm to shoots): 27 days
- Days to 100% BB ([3]; applied at 97.2 ppm to shoots): 17 days
- Shoot Weight ([3]; applied at 97.2 ppm): 9.1 g
- Days to 50% BB ([3]; applied at 194.4 ppm to shoots): 29 days
- Days to 100% BB ([3]; applied at 194.4 ppm to shoots): 28 days
- Shoot Weight ([3]; applied at 194.4 ppm): 5.4 g
- Days to 50% BB ([3]; applied at 486 ppm to shoots): 22 days
- Days to 100% BB ([3]; applied at 486 ppm to shoots): 13 days
- Shoot Weight ([3]; applied at 486 ppm): 7.6 g
- Days to 50% BB ([3]; applied at 972 ppm to shoots): 27 days
- Days to 100% BB ([3]; applied at 972 ppm to shoots): 10 days
- Shoot Weight ([3]; applied at 972 ppm): 6.2 g
- Bud Break % at 7 days after 1st bud break [4, 17]: 29.7 a %
- Bud Break % at 21 days after 1st bud break [4, 17]: 100 f %
- Bud Break % at 21 days after 1st bud break ([4]; 486 ppm, applied 2 weeks before natural bud break, listed as inpyrfluxam): statistically significant increase over control
- Bud Break % at 7 days after 1st bud break [4, 16]: 36.8 a %
- shoot weight, more than control ([1]; 486 ppm (Table 1)): 44%
- Days to 50% BB ([1]; applied at 486 ppm to shoots): 9 days
- Days to 100% BB ([1]; applied at 486 ppm to shoots): 17 days
- Shoot Weight ([1]; applied at 486 ppm): 47 g
- time to 50% bud break, faster than control [1]: about 25%

SMILES: CON(C(=O)c1cn(C)nc1C(F)F)C(C)Cc1c(Cl)cc(Cl)cc1Cl (stereo not shown) [Pydiflumetofen, pydiflumetofen]
- Days to 50% BB ([1]; applied at 968 ppm to shoots): 9 days
- Days to 100% BB ([1]; applied at 968 ppm to shoots): 26 days
- Shoot Weight ([1]; applied at 968 ppm): 24 g
- time to 50% bud break, faster than control [1]: about 25%
